Publication PMC4384654 (ChemMedChem, 2014)
“And” between values parts separate entries of the source, which are not always exact repeats. Equal entries are not always repeated. Where two headings read alike, the source gives them in different places.

Key:
[1] = target: T1, FAAH prepared from rat brain homogenates (Rattus norvegicus, UniProt P97612); assay: In vitro rat FAAH radiometric assay; type: biochemical; settings: for IC50: read-out: r-FAAH IC50; for IC50 / % inhibition of FAAH activity at 100 μM: rat brain homogenate; for Increase in potency vs 34a: relative to 34a
T1 sequence (P97612 1-579): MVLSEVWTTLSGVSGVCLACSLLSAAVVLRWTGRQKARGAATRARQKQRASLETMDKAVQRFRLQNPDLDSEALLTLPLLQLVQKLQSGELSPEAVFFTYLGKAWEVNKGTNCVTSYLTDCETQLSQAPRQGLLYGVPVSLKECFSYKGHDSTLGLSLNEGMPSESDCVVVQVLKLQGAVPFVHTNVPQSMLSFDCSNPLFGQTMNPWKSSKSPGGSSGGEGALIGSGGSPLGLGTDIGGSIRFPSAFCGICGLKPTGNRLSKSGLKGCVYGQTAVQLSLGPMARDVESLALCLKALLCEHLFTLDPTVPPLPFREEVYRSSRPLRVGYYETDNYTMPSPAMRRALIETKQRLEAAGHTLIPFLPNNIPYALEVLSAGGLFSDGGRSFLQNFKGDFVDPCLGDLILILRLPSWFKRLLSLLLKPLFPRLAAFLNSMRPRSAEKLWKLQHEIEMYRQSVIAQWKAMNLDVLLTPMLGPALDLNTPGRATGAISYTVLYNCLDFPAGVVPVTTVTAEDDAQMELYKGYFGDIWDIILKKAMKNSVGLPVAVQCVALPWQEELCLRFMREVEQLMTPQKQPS

[2] = target: T2, human FAAH-1 (Homo sapiens, UniProt O00519); assay: In vitro human FAAH fluorescent assay; type: biochemical; settings: h-FAAH-1 IC50 relative to r-FAAH IC50
T2 sequence (O00519 1-579): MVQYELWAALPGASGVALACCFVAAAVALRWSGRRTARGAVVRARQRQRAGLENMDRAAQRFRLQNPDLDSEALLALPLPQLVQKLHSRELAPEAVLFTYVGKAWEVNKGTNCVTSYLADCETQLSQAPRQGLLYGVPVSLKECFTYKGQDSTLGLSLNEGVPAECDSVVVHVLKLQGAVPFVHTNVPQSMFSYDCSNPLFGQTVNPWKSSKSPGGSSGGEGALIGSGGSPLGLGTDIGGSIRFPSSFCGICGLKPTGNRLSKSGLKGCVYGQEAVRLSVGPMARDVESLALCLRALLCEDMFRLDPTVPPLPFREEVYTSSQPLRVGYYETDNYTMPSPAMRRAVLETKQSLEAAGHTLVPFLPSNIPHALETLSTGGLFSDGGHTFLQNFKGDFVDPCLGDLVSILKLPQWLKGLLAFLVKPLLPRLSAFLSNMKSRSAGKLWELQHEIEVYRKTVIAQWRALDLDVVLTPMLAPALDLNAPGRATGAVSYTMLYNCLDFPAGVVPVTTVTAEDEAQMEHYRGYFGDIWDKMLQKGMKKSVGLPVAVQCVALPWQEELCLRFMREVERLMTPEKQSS

| IC50 ([1]; mean ± SEM (n=3)) | SMILES | also measured |
| --- | --- | --- |
| 627 ± 173 nM | COc1ccc(Cn2cc(COC(=O)NC3CCCCC3)nn2)cc1 [Compound 26c, [1-[(4-methoxyphenyl)methyl]triazol-4-yl]methyl N-cyclohexylcarbamate] | – |
| 215 ± 31 nM | O=C(NC1CCCCC1)OCc1cn(Cc2ccc(Cl)cc2)nn1 [Compound 24c, [1-[(4-chlorophenyl)methyl]triazol-4-yl]methyl N-cyclohexylcarbamate] | – |
| 51500 ± 1120 nM | O=C(NC1CCCCC1)OCc1ncn(Cc2ccccc2)n1 [Compound 46] | – |
| 21.5 ± 1.2 nM | Cc1ccccc1Cn1cc(COC(=O)NC2CCCCC2)nn1 [Compound 25a, [1-(o-tolylmethyl)triazol-4-yl]methyl N-cyclohexylcarbamate] | – |
| 44.6 ± 10.3 nM | COc1cccc(Cn2cc(COC(=O)NC3CCCCC3)nn2)c1F [Compound 30, [1-[(2-fluoro-3-methoxy-phenyl)methyl]triazol-4-yl]methyl N-cyclohexylcarbamate] | – |
| 7.6 ± 0.6 nM | COc1ccc(Cn2cc(CNC(=O)OCc3cn(Cc4ccccc4OC)nn3)nn2)cc1 [Compound 38, [1-[(2-methoxyphenyl)methyl]triazol-4-yl]methyl N-[[1-[(4-methoxyphenyl)methyl]triazol-4-yl]methyl]carbamate] | Loss of potency on h-FAAH-1 vs r-FAAH [2]: 4 to 10 fold |
| 95.5 ± 22.2 nM | O=C(NC1CCCCC1)OCc1cn(Cc2ccc(F)cc2)nn1 [Compound 23c, [1-[(4-fluorophenyl)methyl]triazol-4-yl]methyl N-cyclohexylcarbamate] | – |
| 9.8 ± 0.4 nM | COc1cccc(Cn2cc(COC(=O)NCc3cn(Cc4ccccc4OC)nn3)nn2)c1 [Compound 39, [1-[(3-methoxyphenyl)methyl]triazol-4-yl]methyl N-[[1-[(2-methoxyphenyl)methyl]triazol-4-yl]methyl]carbamate] | Increase in potency vs 34a ([1]; r-FAAH): ca. 15 fold; Loss of potency on h-FAAH-1 vs r-FAAH [2]: 4 to 10 fold |
| – | O=C(NC1CCCCC1)OCc1cccc(-c2ccccc2)c1 [Compound 4, (3-phenylphenyl)methyl N-cyclohexylcarbamate] | inhibition at 100 µM ([1]; read-out: % inhibition of FAAH activity at 100 μM): 65% |
| 2000 ± 636 nM | O=C(NC1CCCCC1)OCc1cn(Cc2ccc3ccccc3c2)nn1 [Compound 21, [1-(2-naphthylmethyl)triazol-4-yl]methyl N-cyclohexylcarbamate] | IC50 [1]: 2000 nM |
| 12.1 ± 0.8 nM | O=C(NC1CCCCC1)OCc1cn(Cc2cccc(F)c2)nn1 [Compound 23b, [1-[(3-fluorophenyl)methyl]triazol-4-yl]methyl N-cyclohexylcarbamate] | – |
| 11.9 ± 1 nM | O=C(NC1CCCCC1)OCc1cn(Cc2c(F)cccc2F)nn1 [Compound 28, [1-[(2,6-difluorophenyl)methyl]triazol-4-yl]methyl N-cyclohexylcarbamate] | – |
| 1.4 ± 0.2 nM | COc1ccccc1Cn1cc(COC(=O)NC2CCCCC2)nn1 [Compound 26a, [1-[(2-methoxyphenyl)methyl]triazol-4-yl]methyl N-cyclohexylcarbamate] | Loss of potency on h-FAAH-1 vs r-FAAH [2]: 240 fold |
| 3.2 ± 1.2 nM | COc1cccc(Cn2cc(CNC(=O)OCc3cn(Cc4ccccc4OC)nn3)nn2)c1 [Compound 37, [1-[(2-methoxyphenyl)methyl]triazol-4-yl]methyl N-[[1-[(3-methoxyphenyl)methyl]triazol-4-yl]methyl]carbamate] | Increase in potency vs 34a ([1]; r-FAAH): 48 fold; Loss of potency on h-FAAH-1 vs r-FAAH [2]: 4 to 10 fold |
| 154 ± 14 nM | COc1ccccc1Cn1cc(CNC(=O)OCc2cn(Cc3ccccc3OC)nn2)nn1 [Compound 34a, [1-[(2-methoxyphenyl)methyl]triazol-4-yl]methyl N-[[1-[(2-methoxyphenyl)methyl]triazol-4-yl]methyl]carbamate] | – |
| – | O=C(NC1CCCCC1)OCc1cn(C(c2ccccc2)c2ccccc2)nn1 [Compound 20, (1-benzhydryltriazol-4-yl)methyl N-cyclohexylcarbamate] | % inhibition of FAAH activity at 100 μM [1]: 73% @ 100 μM |

| IC50 ([1]; mean ± SEM (n=3)) | SMILES | also measured |
| --- | --- | --- |
| 11.8 ± 3.7 nM | COc1cccc(Cn2cc(COC(=O)NC3CCCCC3)nn2)c1 [Compound 26b, [1-[(3-methoxyphenyl)methyl]triazol-4-yl]methyl N-cyclohexylcarbamate] | – |
| 26 nM and 26.2 nM | O=C(NC1CCCCC1)OCc1cn(Cc2ccccc2)nn1 [Compound 18, (1-benzyltriazol-4-yl)methyl N-cyclohexylcarbamate] | Less potent than 1a (URB524) ([1]; r-FAAH, relative to 1a): 4.6 fold; Increase in potency vs compound 17 ([1]; r-FAAH, relative to 17): ca. 15 fold |
| 21.5 ± 7.9 nM | N#Cc1cccc(Cn2cc(COC(=O)NC3CCCCC3)nn2)c1 [Compound 22b, [1-[(3-cyanophenyl)methyl]triazol-4-yl]methyl N-cyclohexylcarbamate] | – |
| 6.2 ± 1.3 nM | O=C(NC1CCCCC1)OCc1cn(Cc2ccccc2Cl)nn1 [Compound 24a, [1-[(2-chlorophenyl)methyl]triazol-4-yl]methyl N-cyclohexylcarbamate] | Loss of potency on h-FAAH-1 vs r-FAAH [2]: 172 fold |
| 24.5 ± 6.2 nM | Cc1cccc(Cn2cc(COC(=O)NC3CCCCC3)nn2)c1 [Compound 25b, [1-(m-tolylmethyl)triazol-4-yl]methyl N-cyclohexylcarbamate] | – |
| 9.9 ± 1.9 nM | O=C(NC1CCCCC1)OCc1cn(Cc2ccccc2F)nn1 [Compound 23a, [1-[(2-fluorophenyl)methyl]triazol-4-yl]methyl N-cyclohexylcarbamate] | Loss of potency on h-FAAH-1 vs r-FAAH [2]: 62 fold |
| 1280 ± 84 nM | O=C(NC1CCCCC1)OCCc1cn(-c2ccccc2)nn1 [Compound 32, 2-(1-phenyltriazol-4-yl)ethyl N-cyclohexylcarbamate] | Decrease in potency vs compound 17 ([1]; r-FAAH, relative to 17): ca. 3 fold |
| 13.2 ± 2.8 nM | O=C(NC1CCCCC1)OCc1cn(Cc2cccc(Cl)c2)nn1 [Compound 24b, [1-[(3-chlorophenyl)methyl]triazol-4-yl]methyl N-cyclohexylcarbamate] | – |
| 500 ± 44 nM | Cc1ccc(Cn2cc(COC(=O)NC3CCCCC3)nn2)cc1 [Compound 25c, [1-(p-tolylmethyl)triazol-4-yl]methyl N-cyclohexylcarbamate] | – |
| 19.5 ± 4.3 nM | N#Cc1ccccc1Cn1cc(COC(=O)NC2CCCCC2)nn1 [Compound 22a, [1-[(2-cyanophenyl)methyl]triazol-4-yl]methyl N-cyclohexylcarbamate] | – |
| 833 ± 129 nM | O=C(NC1CCCCC1)OCc1cn(CCc2ccccc2)nn1 [Compound 19, (1-phenethyltriazol-4-yl)methyl N-cyclohexylcarbamate] | – |
| 2280 ± 585 nM | N#Cc1ccc(Cn2cc(COC(=O)NC3CCCCC3)nn2)cc1 [Compound 22c, [1-[(4-cyanophenyl)methyl]triazol-4-yl]methyl N-cyclohexylcarbamate] | – |
| – | O=C(NC1CCCCC1)OCc1ncn(-c2ccccc2)n1 [Compound 43] | % inhibition of FAAH activity at 100 μM [1]: 70% @ 100 μM |
| 381 nM | O=C(NC1CCCCC1)OCc1cn(-c2ccccc2)nn1 [Compound 17, (1-phenyltriazol-4-yl)methyl N-cyclohexylcarbamate] | – |
| 2540 ± 106 nM | O=C(NC1CCCCC1)OCCc1cn(Cc2ccccc2)nn1 [Compound 33, 2-(1-benzyltriazol-4-yl)ethyl N-cyclohexylcarbamate] | – |
| 10.4 ± 2.6 nM | O=C(NC1CCCCC1)OCc1cn(Cc2cc(F)cc(F)c2)nn1 [Compound 29, [1-[(3,5-difluorophenyl)methyl]triazol-4-yl]methyl N-cyclohexylcarbamate] | – |
